Laboratory results taken from patent publication US6184206A, “Integrin ligand dissociators” (The Burnham Institute, priority 1998, dated 2001).

Experiments:
purified IIb-IIIa [1] = target: T1, purified IIb-IIIa (Homo sapiens, UniProt P05106+P08514); test: Surface Plasmon Resonance, real-time dissociation of ligands from IIb-IIIa; format: binding; conditions: fibrinogen immobilized on sensor chip, without 52012 (FIG. 4B)
Description: FIGS. 4A and 4B. Measuring the ability of 52012 to dissociate fibrinogen and Fab-9 from IIb-IIIa in real time. Studies were performed with Surface Plasmon Resonance to examine the ability of 52012 to induce the dissociation of ligands from IIb-IIIa. Fab-9 (FIG. 4A) or fibrinogen (FIG. 4B) were immobilized on the sensor chip and then allowed to bind to purified IIb-IIIa. At a specific time, 52012 was introduced by injection into the flow cell.
In one embodiment, ILDs can be identified by the ability to increase the rate of dissociation between an integrin and its natural ligand, or a known mimic of its natural ligand, with Surface Plasmon Resonance (SPR), for example, using the BIACORE Surface Plasmon Resonance™ instrument. SPR is a technique that measures ligand association and dissociation in "real time." To screen for an ILD using plasmon resonance, the following steps would be taken:
It is important to note that the configuration of the assay could take several different forms. For example, rather than immobilizing the integrin on the sensor chip, one could immobilize the ligand. In such case, the integrin would be allowed to bind the immobilized ligand prior to measuring dissociation rates.
To verify the effect of RGD-type ligands on the dissociation of fibrinogen from IIB-IIIa, dissociation rates were measured in real time using Surface Plasmon Resonance (SPR).

purified IIb-IIIa [2] = target: T1, purified IIb-IIIa; test: Competition binding to purified IIb-IIIa immobilized in microtiter plates; conditions: 125I-Fab-9 challenged with unlabeled fibrinogen (FIG. 1B)
Description: FIGS. 1A and 1B. Fibrinogen and Fab-9 bind distinct sites on IIb-IIIa. Studies were conducted with purified IIb-IIIa to determine whether Fab-9 (an RGD mimic) and fibrinogen bind to the same site on the integrin. IIb-IIIa was immobilized in microtiter plates and was allowed to bind either ^125 I-fibrinogen (FIG. 1A) or to ^125 I-Fab-9 (FIG. 1B). The binding of ^125 I-fibrinogen was challenged with unlabeled Fab-9. Similarly, the binding of ^125 I-Fab-9 was challenged with unlabeled fibrinogen.
To determine if fibrinogen and Fab-9 actually bind the same site on IIb-IIIa, a series of competition binding studies were carried out. The ability of the two ligands to compete for binding to IIB-IIIa was measured. Fab-9 blocked the binding of fibrinogen to IIB-IIIa (FIG. 1A). […] These sites are designated as Site I, which binds to Fab-9 and Site II, which interacts with fibrinogen (FIG. 2).

T1 sequence (P08514 32-887 limits assumed): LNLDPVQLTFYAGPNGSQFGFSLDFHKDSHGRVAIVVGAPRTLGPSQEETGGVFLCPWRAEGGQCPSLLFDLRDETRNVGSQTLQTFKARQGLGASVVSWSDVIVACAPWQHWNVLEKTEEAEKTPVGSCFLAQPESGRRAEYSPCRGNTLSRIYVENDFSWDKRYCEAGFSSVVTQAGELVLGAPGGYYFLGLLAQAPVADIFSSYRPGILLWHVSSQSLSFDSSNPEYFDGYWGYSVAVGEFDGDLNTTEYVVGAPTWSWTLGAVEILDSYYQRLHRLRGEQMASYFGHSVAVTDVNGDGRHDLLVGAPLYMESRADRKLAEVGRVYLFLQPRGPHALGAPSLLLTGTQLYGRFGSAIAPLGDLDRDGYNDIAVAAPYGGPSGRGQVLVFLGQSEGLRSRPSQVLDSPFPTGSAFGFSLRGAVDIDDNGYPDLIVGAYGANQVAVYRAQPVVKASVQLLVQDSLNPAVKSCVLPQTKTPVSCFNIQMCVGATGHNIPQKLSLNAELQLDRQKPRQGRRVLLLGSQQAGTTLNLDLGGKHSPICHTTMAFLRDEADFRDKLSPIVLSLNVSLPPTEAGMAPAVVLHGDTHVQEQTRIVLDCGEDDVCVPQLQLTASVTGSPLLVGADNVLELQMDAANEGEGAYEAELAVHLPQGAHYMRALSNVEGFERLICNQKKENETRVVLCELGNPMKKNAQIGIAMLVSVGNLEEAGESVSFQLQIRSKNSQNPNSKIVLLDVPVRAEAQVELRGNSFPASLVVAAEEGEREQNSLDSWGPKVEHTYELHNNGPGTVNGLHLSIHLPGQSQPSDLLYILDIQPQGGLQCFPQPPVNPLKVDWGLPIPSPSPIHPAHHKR
T1 sequence (P08514 891-1039 limits assumed): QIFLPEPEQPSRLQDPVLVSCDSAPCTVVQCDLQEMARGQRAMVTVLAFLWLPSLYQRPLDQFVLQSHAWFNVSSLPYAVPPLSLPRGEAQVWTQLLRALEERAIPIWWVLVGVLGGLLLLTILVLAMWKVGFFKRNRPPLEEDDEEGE
T1 sequence (P05106 27-788): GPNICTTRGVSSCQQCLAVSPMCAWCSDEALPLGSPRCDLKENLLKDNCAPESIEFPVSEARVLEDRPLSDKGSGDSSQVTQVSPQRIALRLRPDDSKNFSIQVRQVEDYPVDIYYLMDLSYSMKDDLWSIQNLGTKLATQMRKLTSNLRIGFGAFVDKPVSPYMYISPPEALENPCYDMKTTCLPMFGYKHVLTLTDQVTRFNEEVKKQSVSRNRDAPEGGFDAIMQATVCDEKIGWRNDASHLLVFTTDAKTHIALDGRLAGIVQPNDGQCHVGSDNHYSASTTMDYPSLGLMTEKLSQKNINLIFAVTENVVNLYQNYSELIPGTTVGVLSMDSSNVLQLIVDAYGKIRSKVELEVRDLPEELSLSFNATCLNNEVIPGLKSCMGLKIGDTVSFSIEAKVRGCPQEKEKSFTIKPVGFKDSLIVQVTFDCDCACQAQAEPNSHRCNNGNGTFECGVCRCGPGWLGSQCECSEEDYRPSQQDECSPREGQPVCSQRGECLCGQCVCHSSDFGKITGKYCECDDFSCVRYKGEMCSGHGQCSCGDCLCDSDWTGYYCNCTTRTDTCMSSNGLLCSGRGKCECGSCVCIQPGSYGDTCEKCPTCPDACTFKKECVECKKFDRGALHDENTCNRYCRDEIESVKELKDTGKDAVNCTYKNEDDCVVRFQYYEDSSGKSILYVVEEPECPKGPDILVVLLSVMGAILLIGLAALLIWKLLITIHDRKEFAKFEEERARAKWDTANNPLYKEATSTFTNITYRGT

- off-rate of fibrinogen from IIb-IIIa before 52012 (purified IIb-IIIa [1]): 6e-05 s⁻¹
- blocking of binding of 125I-Fab-9 to IIb-IIIa (purified IIb-IIIa [2]): failed to block
Substance: fibrinogen
